Molecules are shown by their SMILES. “Also recorded” adds a separate entry of the source.

In one assay the test system is microglia. The experiment in a line: Microglia depletion and activation in naive/wildtype mice after 5 days of treatment (Iba1 histology). Format: in vivo. As to the method:
After fixation brains were processed for paraffin embedding by dehydration through increasing ethanol series. Automated immunohistochemistry of paraffin sections was performed on 3 μm paraffin sections mounted on SuperFrost+slides (Thermo Fisher Scientific) and automatically immunostained using the Discovery XT technology (Ventana, Roche Diagnostics). Sections were deparaffinized, rehydrated, subjected to antigen retrieval by heating with CC1 cell conditioning buffer for 28-68 min according to the antibody, incubated for 1-3 hours according to the antibody at room temperature with primary antibody diluted in antibody diluent (Ventana), incubated with the respective biotinylated secondary antibody diluted in antibody diluent, reacted with DABMab kit and counterstained with Hematoxylin II and Bluing reagent (Ventana). Slides were washed with soap in hot tap water and rinsed under cold running tap water to remove the soap, then dehydrated and embedded with Pertex.
Secondary detection antibodies are: Goat anti-rabbit IgG biotinylated (Jackson ImmunoResearch 111-065-144) 1:1000; Goat anti-rabbit IgG biotinylated (Vector BA-1000) 1:200 or 1:1000
For the quantitative evaluation of microglia/astrocyte numbers based on image analysis from histological stained brain sections, a proprietary image analysis platform (ASTORIA, Automated Stored Image Analysis) was developed based on MS Visual Studio 2010 and many functions from Matrox MIL V9 libraries (Matrox Inc, Quebec, Canada).
For the detection and analysis of soma the following sequence of steps was performed: 1. Slides with brain sections for assessment of (brown) IHC stained microglia (Iba1) or astrocyte (GFAP) were scanned with Aperio's Scanscope at 20× magnification. 2. Ran the in-house developed ImageScope (V12.1.0.5029, Aperio Inc., USA) plug-in for creation and export of 3×8-bit RGB tif image tiles (at 20× magnification) for each section. 3. Image processing (for each tif image): A: Performed color deconvolution on each tif image to obtain brown stained image without blue. B: Segmentation of valid sample (brain tissue) from white background through thresholding, morphological closing, filling of holes, opening and elimination of too small objects, resulting in a binary mask of the valid tissue and sample area for the current image. C: Applied an adaptive thresholding technique for the individual segmentation of soma, based on the average gray value of the blue channel of the color-deconvoluted brown image at sufficiently dark regions (indicative for soma). The computed threshold was used for binarization, and after size filtering yielding the soma mask image (within the valid sample region).
FIG. 10: BLZ945 treatment leads to microglia depletion and microglia activation in a dose-dependent manner. […]

Assay [1] has as its system Cuprizone-Induced Demyelination in Mice. Nature of the assay: Cuprizone-induced demyelination in mice, brain histology / immunohistochemistry (169 mg/kg). It is filed as in vivo, Mice (C57BL/6J). As to conditions: 169 mg/kg p.o. qd, 2 weeks after 5 weeks 0.2% cuprizone. An excerpt: Studies described below were approved by the Swiss Cantonal Veterinary Authority of Basel City, Switzerland, under the license number 2711. Mice (C57BL/6J) were commercially purchased from Charles River Laboratories, Germany or obtained from Novartis Pharma AG breeding colonies (8-9 weeks old, females). All the animals were allowed to adapt for 7 days prior the start of the experiment and housed in IVC racks (max. 4 mice/XJ Type cage). The animals were given access to food and water ad libitum. Animals were treated with cuprizone for 5 weeks. Cuprizone (Bis(cyclohexanone)oxaldihydrazone, Sigma-Aldrich) was mixed into rodent food pellets (0.2% w/w) by Provimi Kliba AG, Switzerland. Therapeutic treatment of animals after cuprizone was performed for 2 weeks on normal food with 169 mg/kg of BLZ945, qd, p.o. 10 ml/kg. BLZ945 was prepared in vehicle consisting of 0.5% methylcellulose in water and 0.1% Tween-80. Before killing 3 h after last BLZ945 dosing animals were perfused transcardially by phosphate-buffered saline (PBS), brains isolated and fixed in 4% paraformaldehyde (PFA) for 48 h at 4° C. After fixation brains were processed for paraffin embedding by dehydration through increasing ethanol series. Automated immunohistochemistry of paraffin sections was performed on 3 μm paraffin sections mounted on SuperFrost+ slides and automatically immunostained using the Discovery XT technology (Ventana/Roche Diagnostics). Briefly, sections were deparaffinized, rehydrated, subjected to antigen retrieval by heating with CC1 cell conditioning buffer, incubated for 1-3 hours at room temperature with primary antibody diluted in antibody diluent, incubated with the respective biotinylated secondary antibody diluted in antibody dilution, reacted with DABMab kit and counterstained with Hematoxylin II and Bluing Agent reagent (Ventana/Roche Diagnostics). Slides were washed with soap in hot tap water and rinsed under cold running tap water to remove the soap, then dehydrated and embedded with Pertex. Manual immunofluorescence staining of paraffin sections was performed on 3 μm paraffin sections. They were de-waxed and subjected to antigen retrieval (exception: GST-π) by microwaving for 15-20 minutes at 98° C. in 0.1 M citrate buffer pH 6.0 (quartett 400300692), the jar with slides were cooled to room temperature for 20-25 min and rinsed in 1×TBS (cell signaling 12498S) twice for 3 min. Endogenous peroxidase was quenched with Perox Block (Dako S2023) for 10 min, sections then washed with 1×TBS twice for 3 min and blocking with 10% normal goat serum (Dako X0907) in 1×TBS for 20 min performed. Sections were then incubated without rinsing with primary antibody for 60 min (MBP) or overnight (GST-pi, MOG) at room temperature. Sections were then washed in 1×TBS twice for 3 min and then incubated with secondary antibody for 30 min at room temperature. Sections were then washed with 1×TBS twice for 3 min and incubated with Vectastain ABC Elite Kit (Vector PK6100) for 30 min at room temperature, washed with 1×TBS twice for 3 min, incubated with DAB solution (Dako K3468) for 1-5 min. Sections were finally washed with distilled water twice for 2 min, counterstained with Hematoxylin (Dako S2020) for 3 min, again washed with running tap water for 5 min, dehydrated and embedded in Pertex. […]

Setting [2] is: 20 mg/kg p.o. qd, naive/wildtype mice.
[3] abbreviates: compared to control (normal food).

Turning to `CNC(=O)c1cc(Oc2ccc3nc(N[C@@H]4CCCC[C@H]4O)sc3c2)ccn1` [BLZ945, 4-(2-((1R,2R)-2-hydroxycyclohexylamino)benzothiazol-6-yloxy)-N-methylpicolinamide], in the assay on microglia (setting [2]), the “Microglia activation (Iba1-positive microglia size normalized to distal microglia processes), cortex” value is given as “only mildly; also recorded: slight increase in the activation status” and the “Microglia depletion (Iba1-positive microglia numbers), cortex” value was “no microglia depletion; also recorded: no microglia reduction”. Further, in the assay on microglia (60 mg/kg p.o. qd, naive/wildtype mice), the “Microglia activation (Iba1-positive microglia size normalized to distal microglia processes), cortex” value was “strong microglia activation; also recorded: substantially enhanced the morphological activation status; also recorded: altered microglia morphology”. The Microglia depletion entry in the assay on microglia (169 mg/kg p.o. qd, naive animals, all brain areas) is “almost completely depletes microglia; also recorded: near complete microglia depletion”. In assay [1] (setting [3]), the “Iba1+ microglia number compared to control, cortex” value is listed as “lower number of Iba1+ microglia” and the “Iba1+ microglia number compared to control, striatum” value is listed as “lower number of Iba1+ microglia”. In addition, the “GFAP-positive astrocytes (stained area), all brain areas” value in assay [1] (compared to vehicle) was “enhances astrocytes; also recorded: even further increases astrocyte numbers; also recorded: substantially higher in cortex and striatum than it is in the corpus callosum”. Also, the “Iba1-positive microglia numbers, all brain areas analyzed (cortex, striatum, corpus callosum)” value in assay [1] (compared to vehicle treated animals) was “reduces microglia numbers; also recorded: significantly reducing this increase compared to vehicle treated animals”. Moreover, in assay [1] (immunohistochemistry), the “GST-π positive mature oligodendrocytes (number of positive cells), cortex” value was “increases oligodendrocyte numbers; also recorded: did not reach control levels; also recorded: significantly increased after BLZ945 treatment compared to vehicle control”; the “GST-π positive mature oligodendrocytes (number of positive cells), striatum” value is given as “increases oligodendrocyte numbers; also recorded: significantly increased after BLZ945 treatment compared to vehicle control; also recorded: did not reach control levels”; the “Myelin basic protein (MBP) stained area, cortex” value is given as “enhances remyelination; also recorded: did not reach control levels; also recorded: significantly increased after BLZ945 treatment compared to vehicle control”; the “Myelin basic protein (MBP) stained area, striatum” value is recorded as “enhances remyelination; also recorded: did not reach control levels; also recorded: significantly increased after BLZ945 treatment compared to vehicle control”. Moreover, in assay [1] (vs cuprizone vehicle), the “GST-π positive oligodendrocytes, corpus callosum” value is “not corpus callosum; also recorded: no difference”; the “Luxol fast blue (LFB) optical density, corpus callosum” value is “no difference”; the “Myelin oligodendrocyte glycoprotein (MOG) optical density, corpus callosum” value is reported as “not corpus callosum; also recorded: no difference”.

Source of the values: patent publication US20200093801A1, “NEW METHODS FOR THE TREATMENT OF MULTIPLE SCLEROSIS” (Novartis AG, priority 2017, published 2020).
